Measured values from US6884805B2, “Polymorph forms of N-(2,3-dimethyl-5,6,7,8-tetrahydrofuro[2,3-B]quinolin-4-YL)-2-(2-oxopyrrolidin-1-YL)acetamide” (Mitsubishi Pharma Corporation, priority 2001, dated 2005).
Values after ≈ are worked out from the molar mass of the structure shown. “Also recorded” adds a separate entry of the source. Read-outs that look alike come from different tables or passages of the source.

How the values were obtained:
Assay type in all cases: physicochemical
[1] = Solubility in the crystallization solvent (for the supersaturability calculation); conditions: aqueous with cosolvent or surfactant or cyclodextrin, about room temperature, read-out: solubility under the condition of crystallization
Procedure: The supersaturability of the form A crystals was calculated as follows: The supersaturability (calculation) is equal to the concentration of the dissolving N-(2,3-dimethyl-5,6,7,8-tetrahydrofuro[2,3-b]quinolin-4-yl)-2-(2-oxopyrrolidin-1-yl)acetamide divided by the solubility of N-(2,3-dimethyl-5,6,7,8-tetrahydrofuro[2,3-b]quinolin-4-yl)-2-(2-oxopyrrolidin-1-yl)acetamide under the condition of crystallization.
The solubility of N-(2,3-dimethyl-5,6,7,8-tetrahydrofuro[2,3-b]quinolin-4-yl)-2-(2-oxopyrrolidin-1-yl)acetamide under the condition of crystallization refers to the solubility of N-(2,3-dimethyl-5,6,7,8-tetrahydrofuro[2,3-b]quinolin-4-yl)-2-(2-oxopyrrolidin-1-yl)acetamide in the solvents used in crystallization at about room temperature.

[2] = Crystal form stability at room temperature and during storage; conditions: for stability in storage: during storage (over time); for stability at room temperature compared with the other crystal form: room temperature (25° C.)
Text: The form A crystal and the form B crystal of the present invention can be prepared with good reproducibility by using solvents safe for human bodies (e.g., pharmaceutically, pharmacologically, and/or physiologically acceptable). Therefore, it is far more useful as a pharmaceutical bulk or an active ingredient of a medicament.

[3] = Water solubility of saturated solutions measured by LC
Procedure: Saturated solutions of the form A crystals and the form B crystals were prepared at room temperature (25° C.). The concentrations of N-(2,3-dimethyl-5,6,7,8-tetrahydrofuro[2,3-b]quinolin-4-yl)-2-(2-oxopyrrolidin-1-yl)acetamide in each of the saturated solutions then was measured to obtain the water solubility of the form A and form B crystals.
About 20 mg of the form A crystal was weighed and put into separate tube with screwcap, then 10 mL of water were added, and the tube was capped. The tube was ultrasonicated for 5 minutes to suspend the sample. The tube then was shaken for 3 hours in an incubator, with the shaker setting at an appropriate temperature to obtain a saturated solution. The saturated solutions were filtrated using a Chromatodisk 25A (GL Science). 5 mL of the filtrate were measured, and 5 mL of the internal standard solutions (16 mg of isopropyl p-hydroxybenzoate were weighed, and 50% methanol was added to obtain 100 mL of an internal standard solutions) were added, and then 50% methanol was added to obtain 50 mL of sample solutions. 20 mg of each crystals were weighed, and then methanol was added to obtain 50 mL solutions. 5 mL of the aforementioned solutions were measured, and then 5 mL of the internal standard solutions were added, and then 50% of methanol was added to obtain 50 mL of the standard solutions. […]

[4] = Conversion of form B crystal to form A crystal in stirred water suspension; conditions: 0.5 g in 10 mL water, stirred 24 hours, confirmed by powder X-ray diffraction
Procedure: A suspension was prepared by adding 0.5 g of form B crystals of N-(2,3-dimethyl-5 ,6,7,8-tetrahydrofuro [2,3-b]quinolin-4-yl)-2-(2-oxopyrrolidin-1-yl)acetamide to 10 mL of water. […] The powder X-ray diffraction pattern of the resulting crystals was measured to confirm that the resulting crystals were form A crystals.

solubility ([1]; 10% methanol) [mg/mL]	solubility ([1]; 60% methanol) [mg/mL]	stability at room temperature compared with the other crystal form ([2]; listed as form A)	solubility (in words) ([3]; summary statement)	solubility compared with the form A crystal ([3]; water, at 25° C. and over a relatively wide temperature range (FIG. 4))	crystal form after stirring a suspension in water [4]	SMILES	stability in storage [2]	stability at room temperature compared with the other crystal form [2]
0.41 (≈ 1.2 mM)	28.1 (≈ 82.2 mM)	–	–	–	–	Cc1oc2nc3c(c(NC(=O)CN4CCCC4=O)c2c1C)CCCC3 [N-(2,3-dimethyl-5,6,7,8-tetrahydrofuro[2,3-b]quinolin-4-yl)-2-(2-oxopyrrolidin-1-yl)acetamide]	–	–
–	–	more stable	–	–	–	Cc1oc2nc3c(c(NC(=O)CN4CCCC4=O)c2c1C)CCCC3 [form A crystal, N-(2,3-dimethyl-5,6,7,8-tetrahydrofuro[2,3-b]quinolin-4-yl)-2-(2-oxopyrrolidin-1-yl)acetamide]	good stability; also recorded: greater stability	extremely stable; also recorded: better stability
–	–	–	good solubility	higher	resulted in the form A crystals	Cc1oc2nc3c(c(NC(=O)CN4CCCC4=O)c2c1C)CCCC3 [form B crystal, N-(2,3-dimethyl-5,6,7,8-tetrahydrofuro[2,3-b]quinolin-4-yl)-2-(2-oxopyrrolidin-1-yl)acetamide]	worse stability	worse stability
